Read-outs that look alike come from different tables or passages of the source.
How the values were obtained:
[1] = tested on: Clone 15 HL‐60 promyelocytic leukemia cells; assay: Anticancer assay (resazurin); assay type: cell-based, human; conditions: for IC50: read-out: Anticancer activity, IC50 ± SD, Clone 15 HL‐60
Method: (§1) The anticancer activities of synthesized compounds were evaluated using a resazurin‐based assay (Czekanska, [2011]). Accordingly, a screening method similar to that of the cytotoxicity assay was used to screen for anticancer activity, using human melanoma (A375), promyelocytic leukemia (Clone 15 HL‐60), lung cancer (A549), and breast cancer (MCF7) cells. The culture and assay methods are provided in the Supinfo S1.
(§2) The potential anticancer activities of synthesized compounds were screened using the resazurin assay. ^5 Breast adenocarcinoma (MCF7, ATCC® HTB-22™) and human melanoma (A375, ATCC® CRL-1619™) cells were cultured in Hyclone Dulbecco's modified Eagle’s medium with high glucose (Separations) supplemented with 10 % fetal bovine serum (FBS) (Thermofisher Scientific) and 1 % L-glutamine, penicillin-streptomycin and non-essential amino acids (Lonza). Human lung carcinoma (A549, ATCC®, CCL-185™) cells were cultured in Ham’s F12K medium supplemented with 10% FBS and 1% L-glutamine, penicillin-streptomycin and non-essential amino acids. Human promyelocytic leukemia (Clone 15 HL-60, ATCC® CRL-1946™) cells were cultured in RPMI-1640 medium (Sigma Aldrich) supplemented with 10% FBS and 1% penicillin-streptomycin. The cell lines were maintained in a humidified atmosphere at 37 °C and 5% CO2.
(§3) For the resazurin assay, 96 well plates were prepared with 100 μL of 100 000 cells/mL MCF7 cell suspension, 100 μL of 50 000 cells/mL A375 cell suspension, 100 μL of 25 000 cells/mL A549 cell suspension, or 50 μL of 50 000 cells/mL HL-60 cell suspension. The MCF7, A375 and A549 cell plates were incubated for 24 hours to allow adherence of the cells to the plate surface, after which the growth medium is replaced with 100 μL medium containing compounds. […] The cell lines were treated with: (i) parthenolide (Sigma Aldrich) (positive control); (ii) growth medium and solvent (negative control to compensate for possible solvent effects); (iii) growth medium and experimental compound solutions. […] Blanks contained growth medium without cells. The treated plates were incubated for 48 hours.
(§4) To initiate the resazurin assay, 50 μL of sterile-filtered resazurin sodium salt (Sigma Aldrich) solution (0.01 % in PBS) was added and the plates incubated for 2 hours (MCF7, A375 and A549 cells) or 24 hours (HL-60 cells). Absorbance was measured at 570 and 600 nm using the Thermofisher Scientific GO Multiscan plate reader. Data analysis was performed for each biological replicate using SkanIt 4.0 Research Edition software. Further data analysis, calculations and IC50 determinations were identical to that of the antileishmanial and cytotoxicity assays.
(§5) For the final IC50 of each compound, the mean IC50 of the biological replicates were calculated with standard deviation (SD).

A375 melanoma cells = assay: Anticancer assay (resazurin); assay type: cell-based, human; conditions: n = 3, read-out: Anticancer activity, IC50 ± SD, A375
Method: as §1, §2, §3, §4, §5

[2] = tested on: L. major strain IR‐173 promastigotes; assay: Antipromastigote assay (resazurin); assay type: cell-based; conditions: L. major IR‐173, read-out: Antileishmanial activity, IC50 ± SD, Promastigote
Method: (§6) The antipromastigote activity of synthesized compounds was evaluated as described previously by Mangwegape et al. ([2021]) using three strains of L. donovani (1S (MHOM/SD/62/1S) and 9515 (MHOM/IN/95/9515)) and L. major (IR‐173 [MHOM/IR/−173]). The assay method is available in the Supinfo S1.
(§7) The antipromastigote activity of synthesized compounds was evaluated using a modified, resazurin-based method of Kulshrestha et al. ^2 and Siqueira-Neto et al. ^3 and on three Leishmania strains. Leishmania donovani (strains 1S (MHOM/SD/62/1S) and 9515 (MHOM/IN/95/9515)) and L. major (strain IR-173 (MHOM/IR/-173)) promastigotes were cultured in M199 with Hank's salts and 0.68 mM L-glutamine (Sigma Aldrich) supplemented with 50 U/mL Penicillin/Streptomycin solution (Lonza), 4.2 mM sodium bicarbonate, 25 mM Hepes, 10% fetal bovine serum, 0.25% hemin, 0.1% biotin, and 10 mM adenine (Sigma Aldrich) and the pH adjusted to 7.3 – 7.4. The promastigotes were maintained at 25 °C.
(§8) Amphothericin B (10 μM) served as the standard drug and growth medium without parasites served as the blank. The plates were incubated for 48 hours at 25 °C in humidified atmosphere. After incubation, 50 μL of resazurin solution (0.01% in PBS) was added to each well and the plates were further incubated at 25 °C in the dark for 24 hours. Absorbance was measured at 570 nm and 600 nm using the Thermofisher Scientific GO Multiscan plate reader. Data analysis was performed for each biological replicate using SkanIt 4.0 Research Edition software. Background absorbance of resazurin (600 nm) was subtracted from the absorbance values of resorufin (570 nm). The mean absorbance calculated and the percentage growth inhibition and cell viability were determined by the following equations: […]
(§9) The IC50 and Z-score were determined for each compound’s three biological replicates using the cell viability % values and GraphPad Prism 5. The mean IC50 of the biological replicates with standard deviation (SD) served as the final IC50 of each compound.

[3] = tested on: L. donovani strain 9515 promastigotes; assay: Antipromastigote assay (resazurin); assay type: cell-based; conditions: L. donovani 9515, read-out: 9515 IC50 ± SD, Promastigote
Method: as §6, §7, §8, §9

[4] = tested on: L. donovani strain 1S promastigotes; assay: Antipromastigote assay (resazurin); assay type: cell-based; conditions: L. donovani 1S, read-out: 1S IC50 ± SD, Promastigote
Method: as §6, §7, §8, §9

[5] = tested on: L. donovani strain 1S amastigotes; assay: Anti-amastigote assay (intramacrophage, THP-1 host, resazurin); assay type: cell-based; conditions: L. donovani 1S, read-out: 1S IC50 ± SD, Amastigote
Method: (§10) The activities of synthesized compounds against the intramacrophage parasites of the three Leishmania strains were evaluated using a modified, resazurin‐based method (Jain et al., [2012]; Njanpa et al., [2021]). Suspension cultures of human acute monocytic leukemia (THP‐1) cells were maintained in RPMI‐1640 medium (Sigma Aldrich) supplemented with 10% FBS and 1% penicillin–streptomycin, at 37°C and 5% CO2 in a humidified atmosphere. Duplicate 96‐well plates (for respective anti‐amastigote and cytotoxicity assays) were seeded with 200 μl of a 2.5 × 10^5 cells/ml suspension treated with 25 ng/ml phorbol 12‐myristate 13‐acetate (PMA), followed by 48‐h incubation to promote differentiation into adherent macrophages.
(§11) For the anti‐amastigote assay, differentiated plates were carefully washed with PBS, followed by the addition of 200 μl of stationary phase promastigotes in RPMI 1640 medium with 2% FBS. An MOI of 30:1 was used for all three Leishmania strains. The parasite‐treated plates were incubated for 24 h at 32°C (L. major) or 37°C (L. donovani) and 5% CO2 to promote infection of the macrophages. […] Blanks were represented by growth medium without cells, as well as parasite‐free THP‐1 cells. The treated plates were incubated for 72 h.
(§12) After incubation, the plates were gently washed three times with PBS to remove any remaining extracellular parasites. The wells were then treated with 20 μl of 0.05% sodium dodecyl sulfate in PBS for 30 s to lyse the host macrophages. Lysis was terminated by adding 180 μl promastigote growth medium with 10% FBS. To initiate the resazurin assay, 10 μl of resazurin solution (0.025% in PBS) was added to all wells and the plates were incubated for 24 h at 32°C (L. major) or 37°C (L. donovani) and 5% CO2. Absorbance measurements, calculations, and IC50 determinations were performed as described for the antipromastigote assay (Supinfo S1).

[6] = tested on: L. donovani strain 9515 amastigotes; assay: as above; assay type: cell-based; conditions: L. donovani 9515, read-out: 9515 IC50 ± SD, Amastigote
Method: as §10, §11, §12

[7] = tested on: L. major strain IR‐173 amastigotes; assay: as above; assay type: cell-based; conditions: read-out: Antileishmanial activity, IC50 ± SD, Amastigote
Method: as §10, §11, §12

[8] = Leishmania major, THP-1, L. major IR‐173

CC(=O)Nc1ccc(S(=O)(=O)NN)cc1 [1 g, N-[4-(Hydrazinylsulfonyl)phenyl]acetamide]
melting point: 175 to 178 °C

NNS(=O)(=O)c1ccc(I)cc1 [1a, 4-Iodobenzenesulfonohydrazide]
melting point: 160 to 162 °C

NNS(=O)(=O)c1ccc([N+](=O)[O-])cc1 [1b, 4-Nitrobenzenesulfonohydrazide]
melting point: 149 to 152 °C

Cc1cc(C)c(S(=O)(=O)NN)c(C)c1 [1e, 2,4,6-Trimethylbenzenesulfonohydrazide]
melting point: 110 to 113 °C

NNS(=O)(=O)c1ccc(-c2ccccc2)cc1 [1h, (1,1'-Biphenyl)-4-sulfonohydrazide]
melting point: 180 to 183 °C

NNS(=O)(=O)C1(F)C=CC(c2ccccc2)=CC1 (stereo not shown) [1i, 4-Fluoro-(1,1'-biphenyl)-4-sulfonohydrazide]
melting point: 164 to 169 °C

NNS(=O)(=O)C1(Cl)C=CC(c2ccccc2)=CC1 (stereo not shown) [1j, 4-Chloro-(1,1'-biphenyl)-4-sulfonohydrazide]
melting point: 150 to 153 °C

COC1(S(=O)(=O)NN)C=CC(c2ccccc2)=CC1 (stereo not shown) [1k, 4-Methoxy-(1,1'-biphenyl)-4-sulfonohydrazide]
melting point: 173 to 175 °C

NNS(=O)(=O)c1cccc2c1OCCO2 [1l, 2,3-Dihydrobenzo[b][1,4]dioxine-5-sulfonohydrazide]
melting point: 101 to 103 °C

O=[N+]([O-])c1ccc(/C=N/NS(=O)(=O)c2ccc(I)cc2)o1 [2a, (E)-4-Iodo-N'-[(5-nitrofuran-2-yl)methylene]benzenesulfonohydrazide]
IC50 ([1]; Homo sapiens, HL-60, n = 3): > 10 µM
IC50 (A375 melanoma cells; Homo sapiens, A-375): > 10 µM
IC50 ([2]; Leishmania major): > 10 µM
IC50 ([3]; Leishmania donovani): > 10 µM
IC50 ([4]; Leishmania donovani): > 10 µM
IC50 ([5]; Leishmania donovani, THP-1): > 10 µM
IC50 ([6]; Leishmania donovani, THP-1): > 10 µM
IC50 [7, 8]: > 10 µM

O=[N+]([O-])c1ccc(S(=O)(=O)N/N=C/c2ccc([N+](=O)[O-])o2)cc1 [2b, (E)-4-Nitro-N'-[(5-nitrofuran-2-yl)methylene]benzenesulfonohydrazide]
IC50 ([1]; Homo sapiens, HL-60, n = 3): < 10 µM
Preliminary screening, growth inhibition, Clone 15 HL‐60 ([1]; cutoff 50% growth inhibition at 10 μM): qualified
IC50 ([1]; n = 3): 9.32 ± 0.9 µM
IC50 (A375 melanoma cells; Homo sapiens, A-375): > 10 µM
IC50 ([2]; Leishmania major): > 10 µM
IC50 ([3]; Leishmania donovani): > 10 µM
IC50 ([4]; Leishmania donovani): > 10 µM
IC50 ([5]; Leishmania donovani, THP-1): > 10 µM
IC50 ([6]; Leishmania donovani, THP-1): > 10 µM
IC50 [7, 8]: > 10 µM

CC(=O)Nc1ccc(S(=O)(=O)N/N=C/c2ccc([N+](=O)[O-])o2)cc1 [2g, (E)-N-{4-{ {2-[(5-nitrofuran-2-yl)methylene]hydrazinyl}sulfonyl}phenyl}acetamide]
IC50 (A375 melanoma cells; Homo sapiens, A-375): > 10 µM
IC50 ([2]; Leishmania major): > 10 µM
IC50 ([4]; Leishmania donovani): > 10 µM
IC50 ([5]; Leishmania donovani, THP-1): > 10 µM
IC50 [7, 8]: > 10 µM

O=C1OCCN1/N=C/c1ccc([N+](=O)[O-])o1 [FZD, furazolidone, reference compound]
IC50 ([2]; Leishmania major): 0.34 ± 0.03 µM
IC50 ([3]; Leishmania donovani): 0.28 ± 0.04 µM
IC50 ([4]; Leishmania donovani): 0.32 µM
IC50 ([5]; Leishmania donovani, THP-1): 1.94 µM
IC50 [7, 8]: 2.8 ± 0.5 µM

C=C1C(=O)O[C@H]2[C@H]1CC/C(C)=C/CC[C@@]1(C)O[C@@H]21 [PN, parthenolide, reference compound]
IC50 ([1]; Homo sapiens, HL-60, n = 3): 1.85 ± 0.15 µM
IC50 (A375 melanoma cells; Homo sapiens, A-375): 5.13 ± 0.81 µM

(E)-4-Chloro-N'-[(5-nitrofuran-2-yl)methylene]-(1,1'-biphenyl)-4-sulfonohydrazide [2j]
IC50 ([1]; n = 3): > 10 µM
IC50 (A375 melanoma cells): > 10 µM
IC50 [2]: > 10 µM
IC50 [3]: > 10 µM
IC50 [4]: > 10 µM
IC50 [5]: > 10 µM
IC50 [6]: > 10 µM
IC50 ([7]; L. major IR‐173): > 10 µM

(E)-4-Methoxy-N'-[(5-nitrofuran-2-yl)methylene]-(1,1'-biphenyl)-4-sulfonohydrazide [2k]
IC50 ([1]; n = 3): > 10 µM
IC50 (A375 melanoma cells): > 10 µM
IC50 [2]: > 10 µM
IC50 [3]: > 10 µM
IC50 [4]: > 10 µM
IC50 [5]: > 10 µM
IC50 [6]: > 10 µM
IC50 ([7]; L. major IR‐173): > 10 µM

Reference: PMC9546217, “Exploring novel nitrofuranyl sulfonohydrazides as anti‐Leishmania and anti‐cancer agents: Synthesis, in vitro efficacy and hit identification” (Chemical Biology & Drug Design, 2022)
